Among the test systems are ACHN; DLD-1; HL-60; IGROV-1; K562; OVCAR-5; SF-268; SF-295; SF-539; SK-OV-3; U-251; HCT-15; NCI/ADR-RES; 786-0.
Common to all, as to experiment: NCI anticancer screen, dose series, 48 h

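Tested at 5 concentrations; 48 h exposure; 96-well plates; endpoints linearly interpolated, else capped at highest concentration. Abbreviation: GI50, concentration required for 50% inhibition of growth.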 Calls of active or inactive are those of the source. Cut-off read from the data, not from the text of the source: active = GI50 up to about 1.1 µM and inactive = higher.

`Cc1nc(N(CCO)CCO)c2sc(=S)n(-c3ccccc3)c2n1`: the GI50 with ACHN, in the test with DLD-1, with HL-60, in the test on IGROV-1, with K562 and with OVCAR-5 was > 100 µM (inactive) throughout. The GI50 in the test with SF-268, in the test with SF-295, in the test on SF-539, in the test with SK-OV-3 and with U-251 was > 100 µM (inactive) throughout.

Turning to `Cc1nc2ccccc2c(=O)n1CC(=O)O`, the GI50 was > 100 µM (inactive) with DLD-1; greater than 100 µM with HCT-15; > 100 µM (inactive) in the test with HL-60; > 100 µM (inactive) in the test with IGROV-1; > 100 µM (inactive) in the test with K562; > 100 µM (inactive) in the test on NCI/ADR-RES. In addition, the GI50 in the test with OVCAR-5, with SF-268, with SF-295, in the test on SF-539, in the test with SK-OV-3 and in the test on U-251 was > 100 µM (inactive) in each case.

For `Nc1ccc2c(c1)C1=NNC(=O)CC1C2` (stereo unspecified), the GI50 is > 100 µM (inactive) with DLD-1; greater than 100 µM in the test with HCT-15; > 100 µM (inactive) with HL-60; > 100 µM (inactive) in the test on IGROV-1; > 100 µM (inactive) with K562; > 100 µM (inactive) in the test with NCI/ADR-RES. Besides, the GI50 in the test on OVCAR-5 was > 92.5 µM (inactive); with SF-268 it was > 100 µM (inactive); in the test on SF-295 it was > 100 µM (inactive); in the test with SF-539 it was > 100 µM (inactive); in the test with SK-OV-3, > 100 µM (inactive); with U-251, > 100 µM (inactive).

Turning to `CC12CCC3C(CCC4CC(OC(=O)Cc5ccc(N(CCCl)CCCl)cc5)CCC43C)C1CCC(=O)N2` (stereo unspecified), the GI50 is 15.5 µM (inactive) in the test on 786-0; 11.2 µM (inactive) in the test with ACHN; 18.7 µM (inactive) with DLD-1; 14.7 µM in the test with HCT-15; 4.84 µM (inactive) in the test on HL-60; 16.2 µM (inactive) in the test with IGROV-1. The GI50 in the test with K562 was 16.9 µM (inactive); with SF-268, 17.1 µM (inactive); with SF-295, 16.3 µM (inactive); in the test on SF-539, 15.1 µM (inactive); in the test on SK-OV-3, 18 µM (inactive); in the test on U-251, 15.1 µM (inactive).

Regarding `O=C1C2c3[nH]c4ccccc4c3C3CCSCC3C2C(=O)N1c1ccccc1` (stereo unspecified), the GI50 in the test on 786-0 was > 100 µM (inactive); in the test on ACHN, > 100 µM (inactive); with DLD-1, > 100 µM (inactive); in the test on HCT-15, greater than 100 µM; in the test with HL-60 it was > 100 µM (inactive); in the test with IGROV-1 it was > 100 µM (inactive). The GI50 is 72.9 µM (inactive) with K562; > 100 µM (inactive) in the test with OVCAR-5; > 100 µM (inactive) in the test on SF-268; > 100 µM (inactive) in the test on SF-295; 59.2 µM (inactive) in the test on SF-539; > 100 µM (inactive) in the test with SK-OV-3. Besides, the GI50 in the test with U-251 is > 100 µM (inactive).

Take `O=C(c1ccccc1)c1cc(Cl)ccc1NCn1nnc2ccccc21`: the GI50 was > 100 µM (inactive) in the test on 786-0; > 100 µM (inactive) in the test with ACHN; > 100 µM (inactive) in the test with DLD-1; 42.8 µM in the test on HCT-15; 25.2 µM (inactive) in the test on HL-60; > 100 µM (inactive) in the test on IGROV-1. The GI50 in the test on K562 was 34.6 µM (inactive); in the test with SF-295, 85.3 µM (inactive); with SF-539, 37.8 µM (inactive); with SK-OV-3, 47.8 µM (inactive); in the test with U-251, 55.2 µM (inactive).

Turning to `CC(C)NC(=O)OCc1nnn2c1CCC2`, the GI50 with ACHN is > 100 µM (inactive); with DLD-1, > 100 µM (inactive); in the test on HCT-15 it was greater than 100 µM; with HL-60 it was > 100 µM (inactive); in the test with IGROV-1, > 100 µM (inactive); with K562 it was > 100 µM (inactive). Also, the GI50 in the test on OVCAR-5, in the test on SF-295, in the test on SF-539, in the test on SK-OV-3 and in the test on U-251 was > 100 µM (inactive) throughout.

With `O=S(O)CCCSSSCCCS(=O)O`, the GI50 in the test on ACHN, in the test with DLD-1, in the test on HL-60, in the test with K562, with OVCAR-5 and with SF-268 was > 100 µM (inactive) in each case. The GI50 with SF-539, in the test with SK-OV-3 and in the test on U-251 was > 100 µM (inactive) each time.

`C=C1CC(OC)(C(OC)C(=O)N[C@H]2OCO[C@H]3C2O[C@H](C[C@@H](COC)OC)C(C)(C)C3OC)O[C@H](C)[C@@H]1C` (stereo partly specified): the GI50 with DLD-1 was 0.805 µM (active); in the test with HCT-15 it was 0.8 µM; with HL-60 it was 0.412 µM (active); in the test with IGROV-1, 1.17 µM (inactive); in the test on K562, 0.815 µM (active); with NCI/ADR-RES it was 2.78 µM (inactive). Further, the GI50 in the test on OVCAR-5 was 1.42 µM (inactive); in the test on SF-295, 0.851 µM (active); in the test with SF-539 it was 0.76 µM (active); in the test with SK-OV-3, 1.06 µM (active); with U-251 it was 0.918 µM (active).

For the compound `CC(=O)NC1=C(C)C(=O)c2c(nc3n2CCC3OC(=O)c2ccccc2)C1=O` (stereo unspecified), the GI50 with 786-0 was 4.3 µM (inactive); in the test on ACHN it was 3.04 µM (inactive); in the test with DLD-1, 1.81 µM (inactive); in the test on HL-60, 1.92 µM (inactive); in the test with IGROV-1, 2.08 µM (inactive); with K562, 2.32 µM (inactive). The GI50 in the test on OVCAR-5 is 1.99 µM (inactive); with SF-268, 2.21 µM (inactive); in the test on SF-295 it was 1.51 µM (inactive); in the test with SF-539, 1.93 µM (inactive); with SK-OV-3 it was 2.03 µM (inactive); in the test with U-251 it was 1.89 µM (inactive).

As for `CC(=O)O[C@H]1CC[C@@]2(C)[C@H](CC[C@@H]3[C@@H]2CC[C@]2(C)[C@@H](c4ccc(=O)oc4)C[C@H]4O[C@]342)C1`, the GI50 in the test with DLD-1 was 0.354 µM (active); in the test with HCT-15, 1.08 µM; in the test on HL-60 it was 0.307 µM (active); in the test with IGROV-1 it was 1.08 µM (active); with K562, 0.646 µM (active); in the test with NCI/ADR-RES, 0.518 µM (active). For the same compound, the GI50 in the test on OVCAR-5 was 4.8 µM (inactive); in the test with SF-268 it was 0.348 µM (active); in the test with SF-295 it was 0.515 µM (active); with SF-539, 0.348 µM (active); in the test on SK-OV-3 it was 1.83 µM (inactive); in the test with U-251, 1.02 µM (active).

(Values after ChEMBL document CHEMBL1201862, “PubChem BioAssay data set” (2004).)
